# According to patent publication US10383806B2, “Compositions including sesamin, methods of making and using the same in skin anti-aging and skin lightening applications” (Access Business Group International LLC, priority 2015, dated 2019):
# How the values were obtained:
# Assay type in all cases: cell-based
# [1] = test system: antioxidant response elements; experiment: Anti-oxidant response element (ARE) luciferase reporter assay in stable HepG2 cells; details: 48 hours, FIG. 4
# Excerpt: Yet other embodiments relate to a method of decreasing a skin anti-inflammatory response comprising applying to the skin a composition in a cosmetically effective amount sufficient to decrease the skin anti-inflammatory response, wherein the composition comprises an amount of sesamin, individually or in combination with at least one other plant ingredient or plant extract from Pistacia (e.g., Pistacia lentiscus), Leontopodium (e.g., Leontopodium alpinium), Spirulina (e.g., Spirulina platensis), Oroxylum (e.g., Oroxylum indicum), Schizandra (e.g., Schizandra chinesis), Moringa (e.g., Moringa pterygosperma), Houttuynia (e.g., Houttuynia cordata), Isodon (e.g., Isodon japonicus), and Saxifraga (e.g., Saxifraga stolonifera), or mixtures thereof, and at least one pharmaceutically or cosmetically acceptable vehicle. […] Use of compositions that are capable of decreasing a skin anti-inflammatory response in the skin may result in improvement of the appearance of skin or at least one sign of aging in skin. Sesamin complex was dissolved in 70% DMSO and finally diluted […] in MEM containing Myrosinase (0.625 U/mL) and Ascorbic Acid (350 uM) and the final concentration of DMSO was 0.14%. […] The cells were grown in minimum essential media (MEM) with 10% fetal bovine serum and 150 ug/mL of hygromycin in a humidified atmosphere containing 5% CO2 at 37 C. For the assay, the cells were seeded at a density of 31,250 cells per well in a 96-well, white-walled, collagen coated plate. The following day, the media was removed and fresh growth media was added. After 24 hours, the cells were treated with test compounds for 48 hours (100 ug/mL, 50 ug/mL, 25 ug/mL, 12.5 ug/mL, and […]), lysed and the amount of luciferase produced was measured using a luciferase activity assay. Data were captured as relative luminescence units (RLUs) using an M5 Spectrophotometer (Molecular Devices, Inc).
# [2] = molecular target: T1, Gal4-PPARγ-LBD fusion protein (Homo sapiens, UniProt P37231); experiment: PPARγ activation luciferase reporter assay (Gal4-PPARγ-LBD, CHO-K1 cells); details: 18-24 hours, FIG. 6, n=2
# T1 construct: The PPARγ-LBD (residues 203-477) was PCR amplified from human MGC: 5041; expressed in transfected cells
# T1 sequence (P37231 203-477 isoform P37231-2): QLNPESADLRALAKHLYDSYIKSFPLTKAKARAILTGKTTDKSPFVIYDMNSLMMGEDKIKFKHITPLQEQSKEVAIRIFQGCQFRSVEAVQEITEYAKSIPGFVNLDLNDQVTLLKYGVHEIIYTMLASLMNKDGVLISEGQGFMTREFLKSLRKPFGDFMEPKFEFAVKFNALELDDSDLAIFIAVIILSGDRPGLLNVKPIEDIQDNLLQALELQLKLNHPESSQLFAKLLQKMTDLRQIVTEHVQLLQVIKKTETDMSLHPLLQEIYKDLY
# Protocol: Troglitazone (positive control) was purchased from Sigma Corp. Sesamin sample was purchased from Virun Chemicals and a stock solution at a concentration of 100 mg/mL was prepared in 70% Dimethyl Sulfoxide (DMSO) and diluted to the indicated concentrations as shown in the figure. The final concentration of DMSO was maintained at 0.05% or lower. Stock solutions of troglitzone and sesamin samples were solubilized and diluted in DMSO prior to dilution in Dubelco's minimum essential media (DMEM) containing 0.5% Bovine serum Albumin (BSA) for testing. To study the activation of PPARγ in a luciferase reporter assay, a Gal4-PPARγ-ligand-binding domain (LBD) vector was created in a modified pF[…] (BIND) vector (Promega Inc). The PPARγ-LBD (residues 203-477) was PCR amplified from human MGC: 5041 (pSPORT6; Open Biosystems Inc.) and ligated into the pBIND3 vector forming a Gal4-PPARγ-LBD fusion protein. […] Luciferase was quantified using an activity assay from Biotium Inc. Briefly, at time of analysis, cells in white-walled 96-well plates were rinsed once using 50 μL of DPBS, then lysed with 20 μL of 1× passive lysis buffer. […] Reconstituted, room temperature D-luciferin was added (100 μL per well) and light emission was immediately read using an M-5 spectrophotometer (Molecular Devices, Inc.).
# Melan-a cells = experiment: Melanin inhibition assay in Melan-a cells; details: 4 days, concentrations of FIG. 5
# Protocol: Melan-a cells seeded at a density of 5×10^4 cells per well were grown in a 24 well plate. Sesamin complex (S1) (at the concentrations indicated in the legend of FIG. 5) was dissolved in (DMSO) such that the final concentration of DMSO in the culture medium was maintained at 0.05%. Sesamin complex and Phenylthiourea (PTU) was added to the cells in triplicate and incubated for 2 days following which the cells were again treated with compounds supplemented with fresh medium. PTU at a concentration of 60 ug/ml was used as a positive inhibitor control in the melanin inhibition assay. Two days later, melanin was extracted and quantitated by normalizing with the protein content. After 4 days, melanin was extracted and cleared of the cell debris from each of the wells were dissolved by treating with 2N NaOH in 20% DMSO and incubating the samples for 60 min at 55° C. The melanin content in each sample was determined by measuring absorbance at 490 nm. Data were presented as % melanin content normalized to protein content in untreated wells compared to % melanin content extracted from samples.
compound,measurement,setting,value
c1cc2c(cc1[C@H]1OC[C@H]3[C@@H]1CO[C@@H]3c1ccc3c(c1)OCO3)OCO2 [sesamin],anti-oxidant response (% Response),"[1]; 50 ug/mL, second highest response",activation of anti-oxidant pathways
same,anti-oxidant response (% Response),[1]; 100 ug/mL,highest anti-oxidant response
same,"anti-oxidant response (% Response, luciferase RLU normalized to untreated 0% and sulforophane 100%)","[1]; HepG2 ARE-luciferase cells, 6.75-100 ug/mL",dose-dependent anti-oxidant response
same,activation of PPARγ (percent of control response),[2]; sesamin at 70% (μg/mL),dose-dependent activation of PPARγ
same,activation of PPARγ (percent of control response),[2]; sesamin at 90% (μg/mL),dose-dependent activation of PPARγ
same,melanin inhibition (% melanin content normalized to protein content),Melan-a cells,dose dependent melanin inhibition
